Data as given in publication PMC4447944 (The Journal of Biological Chemistry, 2015).

Legend:
hAKT1 = biological target: T1, hAKT1 (Homo sapiens, UniProt P31749); test: KINOMEscan; format: binding
T1 construct: purchased DiscoverX

CYP2C9 = biological target: T2, CYP2C9 (Homo sapiens, UniProt P11712); test: Cytochrome p450 inhibition (Eurofins-CEREP); format: in vitro ADME
T2 construct: Eurofins-CEREP

hCLK2 = biological target: T3, hCLK2 (Homo sapiens, UniProt P49760); test: KINOMEscan; format: binding
T3 construct: purchased DiscoverX

hABL1 = biological target: T4, hABL1 (Homo sapiens, UniProt P00519); test: KINOMEscan; format: binding
T4 construct: purchased DiscoverX (KINOMEscan platform)

hEIF2AK1 = biological target: T5, hEIF2AK1 (Homo sapiens, UniProt Q9BQI3); test: KINOMEscan; format: binding
T5 construct: purchased DiscoverX
T5 sequence (Q9BQI3 whole entry): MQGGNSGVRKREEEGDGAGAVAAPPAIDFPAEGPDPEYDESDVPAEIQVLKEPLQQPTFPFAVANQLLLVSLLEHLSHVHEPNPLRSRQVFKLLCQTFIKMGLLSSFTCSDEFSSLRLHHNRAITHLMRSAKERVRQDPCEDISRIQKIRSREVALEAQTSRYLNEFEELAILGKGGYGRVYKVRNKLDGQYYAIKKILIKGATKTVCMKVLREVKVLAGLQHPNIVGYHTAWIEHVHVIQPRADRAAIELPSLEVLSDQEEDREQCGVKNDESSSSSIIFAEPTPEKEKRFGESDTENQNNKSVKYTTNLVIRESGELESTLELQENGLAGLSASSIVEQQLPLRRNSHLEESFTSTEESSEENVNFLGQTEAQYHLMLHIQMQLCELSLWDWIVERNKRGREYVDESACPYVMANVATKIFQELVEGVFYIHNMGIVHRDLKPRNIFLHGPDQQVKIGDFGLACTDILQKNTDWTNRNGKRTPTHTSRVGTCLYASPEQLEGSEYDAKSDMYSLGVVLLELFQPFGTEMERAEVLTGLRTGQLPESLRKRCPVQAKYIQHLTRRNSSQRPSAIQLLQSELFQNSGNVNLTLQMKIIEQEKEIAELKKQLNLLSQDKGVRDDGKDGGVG

hADRα1A = biological target: T6, hADRα1A (Homo sapiens, UniProt P35348); test: Calcium Mobilization Potentiation (Eurofins-CEREP); conditions: @ 10 μM
T6 sequence (P35348 1-466): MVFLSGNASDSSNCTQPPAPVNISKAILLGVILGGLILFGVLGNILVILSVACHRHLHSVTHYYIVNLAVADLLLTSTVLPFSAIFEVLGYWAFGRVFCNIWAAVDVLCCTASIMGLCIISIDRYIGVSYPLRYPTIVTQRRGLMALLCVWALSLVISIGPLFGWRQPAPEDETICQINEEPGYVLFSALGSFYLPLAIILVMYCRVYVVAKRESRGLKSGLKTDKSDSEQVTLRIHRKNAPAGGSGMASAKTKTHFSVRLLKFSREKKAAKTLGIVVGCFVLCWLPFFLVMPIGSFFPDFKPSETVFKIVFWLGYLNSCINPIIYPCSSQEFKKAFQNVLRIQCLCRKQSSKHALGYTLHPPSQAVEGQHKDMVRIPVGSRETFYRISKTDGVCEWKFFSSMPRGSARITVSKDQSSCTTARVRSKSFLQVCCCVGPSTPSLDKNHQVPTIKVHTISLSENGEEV

hFGR = biological target: T7, hFGR (Homo sapiens, UniProt P09769); test: KINOMEscan; format: binding
T7 construct: purchased DiscoverX

hERK8 = biological target: T8, hERK8 (Homo sapiens, UniProt Q8TD08); test: KINOMEscan; format: binding
T8 construct: purchased DiscoverX

hMARK4 = biological target: T9, hMARK4 (Homo sapiens, UniProt Q96L34); test: KINOMEscan; format: binding
T9 construct: purchased DiscoverX
T9 sequence (Q96L34 whole entry): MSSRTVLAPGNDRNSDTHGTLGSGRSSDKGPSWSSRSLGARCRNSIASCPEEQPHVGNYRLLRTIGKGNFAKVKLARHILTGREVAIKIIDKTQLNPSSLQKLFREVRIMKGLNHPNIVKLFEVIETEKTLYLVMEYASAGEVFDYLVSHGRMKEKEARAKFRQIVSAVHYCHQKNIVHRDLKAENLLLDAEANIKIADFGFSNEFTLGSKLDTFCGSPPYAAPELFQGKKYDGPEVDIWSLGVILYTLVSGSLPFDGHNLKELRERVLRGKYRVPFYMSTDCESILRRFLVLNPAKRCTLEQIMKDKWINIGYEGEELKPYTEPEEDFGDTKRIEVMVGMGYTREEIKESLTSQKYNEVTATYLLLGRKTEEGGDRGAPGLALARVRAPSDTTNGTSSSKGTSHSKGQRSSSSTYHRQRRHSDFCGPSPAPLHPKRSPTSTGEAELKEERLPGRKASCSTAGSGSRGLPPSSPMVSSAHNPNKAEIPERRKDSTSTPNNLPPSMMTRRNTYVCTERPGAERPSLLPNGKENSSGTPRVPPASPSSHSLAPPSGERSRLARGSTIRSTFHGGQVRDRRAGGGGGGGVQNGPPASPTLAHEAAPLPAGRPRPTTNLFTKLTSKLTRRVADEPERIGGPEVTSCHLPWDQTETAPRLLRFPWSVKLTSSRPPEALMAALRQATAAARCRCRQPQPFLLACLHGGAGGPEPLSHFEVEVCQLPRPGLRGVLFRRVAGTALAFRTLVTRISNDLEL

hDRAK1 = biological target: T10, hDRAK1 (Homo sapiens, UniProt Q9UEE5); test: KINOMEscan; format: binding
T10 construct: purchased DiscoverX

hBMPR1A = biological target: T11, hBMPR1A (Homo sapiens, UniProt P36894); test: KINOMEscan; format: binding
T11 construct: purchased DiscoverX

hDCAMKL3 = biological target: T12, hDCAMKL3 (Homo sapiens, UniProt Q9C098); test: KINOMEscan; format: binding
T12 construct: purchased DiscoverX (KINOMEscan platform)

hIGF1R = biological target: T13, hIGF1R (Homo sapiens, UniProt P08069); test: KINOMEscan; format: binding
T13 construct: purchased DiscoverX (KINOMEscan panel)

hALK(C1156Y) = biological target: T14, hALK(C1156Y) (Homo sapiens, UniProt Q9UM73, C1156Y); test: KINOMEscan; format: binding
T14 construct: purchased DiscoverX

hLRRK2 = biological target: T15, hLRRK2 (Homo sapiens, UniProt Q5S007); test: KINOMEscan; format: binding
T15 construct: purchased DiscoverX (KINOMEscan platform)

hMAK = biological target: T16, hMAK (Homo sapiens, UniProt P20794); test: KINOMEscan; format: binding
T16 construct: purchased DiscoverX (KINOMEscan platform)

hCSNK1G1 = biological target: T17, hCSNK1G1 (Homo sapiens, UniProt Q9HCP0); test: KINOMEscan; format: binding
T17 construct: purchased DiscoverX (KINOMEscan platform)

hMAST1 = biological target: T18, hMAST1 (Homo sapiens, UniProt Q9Y2H9); test: KINOMEscan; format: binding
T18 construct: purchased DiscoverX

hPPARγ = biological target: T19, hPPARγ (Homo sapiens, UniProt P37231); test: Nuclear hormone receptor assay (Eurofins-CEREP); conditions: read-out: Relative IC50
T19 construct: Eurofins-CEREP

hIKK-alpha = biological target: T20, hIKK-alpha (Homo sapiens, UniProt O15111); test: KINOMEscan; format: binding
T20 construct: purchased DiscoverX (KINOMEscan panel)

hEPHB2 = biological target: T21, hEPHB2 (Homo sapiens, UniProt P29323); test: KINOMEscan; format: binding
T21 construct: purchased DiscoverX

hEGFR(G719S) = biological target: T22, hEGFR(G719S) (Homo sapiens, UniProt P00533, G719S); test: KINOMEscan; format: binding
T22 construct: purchased DiscoverX
T22 sequence (P00533 25-1210 G719S): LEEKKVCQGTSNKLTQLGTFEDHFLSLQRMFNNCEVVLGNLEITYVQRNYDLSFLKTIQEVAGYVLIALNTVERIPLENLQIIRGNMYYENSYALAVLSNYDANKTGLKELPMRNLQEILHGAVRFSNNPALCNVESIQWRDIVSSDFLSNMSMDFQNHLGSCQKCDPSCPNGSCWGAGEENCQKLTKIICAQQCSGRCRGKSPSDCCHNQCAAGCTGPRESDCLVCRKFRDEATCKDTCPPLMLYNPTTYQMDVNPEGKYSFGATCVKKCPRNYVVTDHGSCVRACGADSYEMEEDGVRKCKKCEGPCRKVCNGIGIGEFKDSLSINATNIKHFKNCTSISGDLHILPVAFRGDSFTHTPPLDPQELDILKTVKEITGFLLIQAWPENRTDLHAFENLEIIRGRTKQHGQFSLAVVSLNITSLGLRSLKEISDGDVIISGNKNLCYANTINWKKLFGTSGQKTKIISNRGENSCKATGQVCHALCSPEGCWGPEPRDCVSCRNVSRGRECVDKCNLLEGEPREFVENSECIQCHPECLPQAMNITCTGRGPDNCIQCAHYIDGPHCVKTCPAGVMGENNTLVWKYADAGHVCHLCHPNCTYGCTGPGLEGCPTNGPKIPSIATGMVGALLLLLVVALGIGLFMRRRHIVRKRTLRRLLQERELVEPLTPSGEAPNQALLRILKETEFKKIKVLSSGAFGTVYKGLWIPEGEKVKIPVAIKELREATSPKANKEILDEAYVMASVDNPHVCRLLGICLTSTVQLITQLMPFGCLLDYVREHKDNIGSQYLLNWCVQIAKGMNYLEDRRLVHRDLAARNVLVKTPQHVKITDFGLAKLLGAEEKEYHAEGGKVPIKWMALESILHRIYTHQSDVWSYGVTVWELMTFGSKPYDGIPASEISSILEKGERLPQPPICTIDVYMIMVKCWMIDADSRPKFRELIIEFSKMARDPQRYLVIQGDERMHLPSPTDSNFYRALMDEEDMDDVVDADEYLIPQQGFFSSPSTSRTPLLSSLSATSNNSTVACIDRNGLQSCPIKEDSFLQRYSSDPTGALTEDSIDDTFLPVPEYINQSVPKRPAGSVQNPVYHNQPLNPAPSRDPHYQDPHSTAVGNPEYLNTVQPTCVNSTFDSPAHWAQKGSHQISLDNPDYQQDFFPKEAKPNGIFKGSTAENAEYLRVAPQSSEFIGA

hRIPK1 = biological target: T23, hRIPK1 (Homo sapiens, UniProt Q13546); test: KINOMEscan; format: binding
T23 construct: purchased DiscoverX (KINOMEscan platform)

[1] = biological target: T24, hJAK1(JH2Dom.-pseudokinase) (Homo sapiens, UniProt P23458); test: KINOMEscan; format: binding
T24 construct: hJAK1(JH2Dom.-pseudokinase); purchased DiscoverX (KINOMEscan panel)

hTGFBR2 = biological target: T25, hTGFBR2 (Homo sapiens, UniProt P37173); test: KINOMEscan; format: binding
T25 construct: purchased DiscoverX

hDAPK2 = biological target: T26, hDAPK2 (Homo sapiens, UniProt Q9UIK4); test: KINOMEscan; format: binding
T26 construct: purchased DiscoverX (KINOMEscan platform)

hHIPK4 = biological target: T27, hHIPK4 (Homo sapiens, UniProt Q8NE63); test: KINOMEscan; format: binding
T27 construct: purchased DiscoverX

hJNK1 = biological target: T28, hJNK1 (Homo sapiens, UniProt P45983); test: KINOMEscan; format: binding
T28 construct: purchased DiscoverX (KINOMEscan panel)

hULK1 = biological target: T29, hULK1 (Homo sapiens, UniProt O75385); test: KINOMEscan; format: binding
T29 construct: purchased DiscoverX
T29 sequence (O75385 whole entry): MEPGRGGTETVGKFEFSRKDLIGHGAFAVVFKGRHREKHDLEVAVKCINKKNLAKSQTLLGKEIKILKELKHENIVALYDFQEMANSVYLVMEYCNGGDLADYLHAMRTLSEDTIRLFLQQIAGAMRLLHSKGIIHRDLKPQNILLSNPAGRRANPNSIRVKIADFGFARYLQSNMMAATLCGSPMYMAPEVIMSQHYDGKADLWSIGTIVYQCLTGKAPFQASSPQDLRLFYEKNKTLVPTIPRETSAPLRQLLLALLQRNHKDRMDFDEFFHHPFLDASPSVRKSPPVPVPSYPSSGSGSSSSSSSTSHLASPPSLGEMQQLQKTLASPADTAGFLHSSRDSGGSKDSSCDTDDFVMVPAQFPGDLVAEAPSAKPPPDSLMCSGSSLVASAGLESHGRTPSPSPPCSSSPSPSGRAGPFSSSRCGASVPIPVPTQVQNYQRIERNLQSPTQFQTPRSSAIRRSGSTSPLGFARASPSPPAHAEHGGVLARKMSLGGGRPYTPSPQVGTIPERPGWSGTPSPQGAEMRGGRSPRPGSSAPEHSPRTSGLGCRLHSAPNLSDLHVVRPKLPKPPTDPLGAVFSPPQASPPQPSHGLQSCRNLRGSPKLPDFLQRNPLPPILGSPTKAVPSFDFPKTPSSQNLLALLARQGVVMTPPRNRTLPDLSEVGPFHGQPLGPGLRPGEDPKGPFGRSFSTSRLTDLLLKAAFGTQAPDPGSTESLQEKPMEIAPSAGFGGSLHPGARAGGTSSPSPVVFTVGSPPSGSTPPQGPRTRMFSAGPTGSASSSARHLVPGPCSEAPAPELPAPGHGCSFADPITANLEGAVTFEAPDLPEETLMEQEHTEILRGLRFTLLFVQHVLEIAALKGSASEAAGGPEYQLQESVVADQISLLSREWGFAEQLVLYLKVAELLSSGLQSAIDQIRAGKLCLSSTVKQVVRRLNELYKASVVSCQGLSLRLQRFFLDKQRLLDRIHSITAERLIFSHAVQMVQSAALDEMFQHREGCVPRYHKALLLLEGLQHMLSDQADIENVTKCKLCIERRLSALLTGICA

hABL1(F317L) = biological target: T30, hABL1(F317L) (Homo sapiens, UniProt P00519, F317L); test: KINOMEscan; format: binding
T30 construct: purchased DiscoverX (KINOMEscan platform)

hARK5 = biological target: T31, hARK5 (Homo sapiens, UniProt O60285); test: KINOMEscan; format: binding
T31 construct: purchased DiscoverX
T31 sequence (O60285 whole entry): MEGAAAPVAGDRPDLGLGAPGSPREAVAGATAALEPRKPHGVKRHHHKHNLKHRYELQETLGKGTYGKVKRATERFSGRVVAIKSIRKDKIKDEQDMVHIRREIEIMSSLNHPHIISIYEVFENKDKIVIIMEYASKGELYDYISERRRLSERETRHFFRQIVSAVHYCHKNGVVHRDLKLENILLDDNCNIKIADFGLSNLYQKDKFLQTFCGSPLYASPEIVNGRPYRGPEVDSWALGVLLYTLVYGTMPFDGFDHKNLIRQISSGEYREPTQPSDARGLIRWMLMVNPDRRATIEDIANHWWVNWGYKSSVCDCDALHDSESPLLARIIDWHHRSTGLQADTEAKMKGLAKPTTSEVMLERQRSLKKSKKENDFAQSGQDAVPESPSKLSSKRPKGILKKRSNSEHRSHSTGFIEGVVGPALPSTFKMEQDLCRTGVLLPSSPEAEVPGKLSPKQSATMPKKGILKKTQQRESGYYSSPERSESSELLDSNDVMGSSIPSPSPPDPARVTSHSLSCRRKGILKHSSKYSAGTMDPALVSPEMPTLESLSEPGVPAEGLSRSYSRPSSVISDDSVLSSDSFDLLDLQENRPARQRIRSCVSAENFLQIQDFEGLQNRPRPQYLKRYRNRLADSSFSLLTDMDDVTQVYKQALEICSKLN

hRSK1(Kin.Dom.1-N-term) = biological target: T32, hRSK1(Kin.Dom.1-N-term) (Homo sapiens, UniProt Q15418); test: KINOMEscan; format: binding
T32 construct: hRSK1(Kin.Dom.1-N-term); purchased DiscoverX (KINOMEscan platform)
T32 sequence (Q15418 62-321 limits assumed): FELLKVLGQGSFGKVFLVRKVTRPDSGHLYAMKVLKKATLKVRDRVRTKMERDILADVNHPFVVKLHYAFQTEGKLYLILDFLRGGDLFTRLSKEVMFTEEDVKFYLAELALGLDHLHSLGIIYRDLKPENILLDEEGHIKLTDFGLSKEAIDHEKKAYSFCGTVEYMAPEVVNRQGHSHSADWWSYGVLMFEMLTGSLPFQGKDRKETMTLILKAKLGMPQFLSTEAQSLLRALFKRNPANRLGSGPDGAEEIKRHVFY

hSRPK1 = biological target: T33, hSRPK1 (Homo sapiens, UniProt Q96SB4); test: KINOMEscan; format: binding
T33 construct: purchased DiscoverX (KINOMEscan platform)

hMEK4 = biological target: T34, hMEK4 (Homo sapiens, UniProt P45985); test: KINOMEscan; format: binding
T34 construct: purchased DiscoverX

hABL1(T315I) = biological target: T35, hABL1(T315I) (Homo sapiens, UniProt P00519, T315I); test: KINOMEscan; format: binding
T35 construct: purchased DiscoverX (KINOMEscan platform)

T1 sequence (P31749 whole entry): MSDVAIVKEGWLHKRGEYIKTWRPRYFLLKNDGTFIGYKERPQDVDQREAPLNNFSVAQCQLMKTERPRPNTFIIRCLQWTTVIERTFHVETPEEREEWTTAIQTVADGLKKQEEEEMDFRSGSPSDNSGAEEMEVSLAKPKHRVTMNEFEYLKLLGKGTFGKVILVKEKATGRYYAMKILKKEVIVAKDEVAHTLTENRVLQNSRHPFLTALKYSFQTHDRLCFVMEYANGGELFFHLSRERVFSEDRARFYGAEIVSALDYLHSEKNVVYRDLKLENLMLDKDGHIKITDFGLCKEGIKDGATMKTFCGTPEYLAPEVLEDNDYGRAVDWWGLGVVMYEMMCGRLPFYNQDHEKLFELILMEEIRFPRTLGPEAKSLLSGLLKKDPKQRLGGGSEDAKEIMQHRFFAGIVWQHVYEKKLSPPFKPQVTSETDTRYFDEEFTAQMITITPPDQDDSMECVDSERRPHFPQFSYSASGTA

For `Cc1cn(CCN2CCN(c3ccccc3-c3cc(C#N)cc(C(=O)NCCCN4CCCC4)c3)CC2)c2ccccc12` [LLY-507, 3-cyano-5-{2-[4-[2-(3-methylindol-1-yl)ethyl]piperazin-1-yl]-phenyl}-N-[(3-pyrrolidin-1-yl)propyl]benzamide], the IC50 (hAKT1) was over 20 µM, the “% inhibition @ 10 μM” value (CYP2C9) was 34.2% and the IC50 (hCLK2) was over 20 µM. The IC50 (hABL1) was over 20 µM, the IC50 (hEIF2AK1) was over 20 µM and the “% Effect, Potentiation” value (hADRα1A) was -7.9%. For the same compound, the IC50 (hFGR) was over 20 µM, the IC50 (hERK8) was over 20 µM and the IC50 (hMARK4) was over 20 µM. It also gave an IC50 (hDRAK1) of over 20 µM, an IC50 (hBMPR1A) of over 20 µM and an IC50 (hDCAMKL3) of over 20 µM. The IC50 (hIGF1R) was over 20 µM, the IC50 (hALK(C1156Y)) was over 20 µM and the IC50 (hLRRK2) was over 20 µM. It also gave an IC50 (hMAK) of over 20 µM, an IC50 (hCSNK1G1) of over 20 µM and an IC50 (hMAST1) of over 20 µM. For the same compound, the IC50 (hPPARγ) was over 10 µM, the IC50 (hIKK-alpha) was over 20 µM and the IC50 (hEPHB2) was over 20 µM. It also gave an IC50 (hEGFR(G719S)) of over 20 µM, an IC50 (hRIPK1) of over 20 µM and an IC50 [1] of over 20 µM. For the same compound, the IC50 (hTGFBR2) was over 20 µM, the IC50 (hDAPK2) was over 20 µM and the IC50 (hHIPK4) was over 20 µM. The IC50 (hJNK1) was over 20 µM, the IC50 (hULK1) was over 20 µM and the IC50 (hABL1(F317L)) was over 20 µM. The IC50 (hARK5) was over 20 µM, the IC50 (hRSK1(Kin.Dom.1-N-term)) was over 20 µM and the IC50 (hSRPK1) was over 20 µM. For the same compound, the IC50 (hMEK4) was over 20 µM and the IC50 (hABL1(T315I)) was over 20 µM.
